Experimental data as given in US9290473B2, “Inhibitors of phosphatidylinositol-3-kinase (PI3) and inducers of nitric oxide (NO)” (COUCIL OF SCIENTIFIC & INDUSTRIAL RESEARCH, priority 2009, dated 2016).
Where two headings read alike, the source gives them in different places.

Key:
U937 cells = test: Morphology and apoptosis/necrosis in U937 cells (Giemsa; annexin V-FITC/PI flow cytometry); assay type: cell-based, human; conditions: 24 hours
Procedure: U937 cells were treated with standard growth medium alone or with standard growth medium containing hydroxychavicol (30 μM) for 24 hours. Treated and untreated cells were stained with Giemsa and viewed under microscope (magnification ×1000). For measurement of apoptosis/necrosis, cells were left untreated or treated with Compound No. 1 (30 μM) or Compound No.7 (15 μM) for 24 hours. After washing, cells were stained with fluorescein isothiocyanate (FITC)-conjugated annexin V and propidium iodide (PI) and analysed in a flow cytometer (BD LSR, Becton Dickinson).
FIG. 2B indicates flow cytometric determination of apoptosis and necrosis by Compound No.1 (hydroxychavicol) and Compound No.7. Apoptosis and necrosis of U937 cells were induced. Cells were left untreated (extreme left panel), or incubated with Compound No.1 (30 μM) (middle panel) or Compound No.7 (extreme right panel) (15 μM) for 24 hours and processed for flow cytometry after staining with annexin V-FITC and propidium iodide (PI). Viable cells are in the lower left quadrant (stained neither by annexin V nor by PI), early apoptotic cells (stained by annexin V only) are in the lower right quadrant, late-stage apoptotic cells (stained by both annexin V and PI) are in the upper right quadrant and the necrotic cells (stained by PI only) are in the upper left quadrant.

[1] = test system: acute myeloid leukemia cell line U937; test: Cell viability, trypan blue exclusion, U937; assay type: cell-based; conditions: Homo sapiens, U-937, 72 hours incubation
Description: (§1) Following cancer cell lines were used: chronic myeloid leukemia cell lines K562, KU812; acute myeloid leukemia cell lines HL60, U937; T-lymphoblastic leukemia cell line Molt-4; prostate cancer cell line PC-3; breast cancer cell line MCF-7; pancreatic cancer cell line MIA PaCa-2. These cancer cell lines were maintained in tissue culture in standard growth medium containing 10% heat-inactivated fetal bovine serum (FBS). Normal human peripheral blood mononuclear cells (PBMC) were separated from whole blood by Ficoll/Hypaque density gradient centrifugation. Peripheral blood samples were collected from normal donors with due approval from the Human Ethics Committee of Indian Institute of Chemical Biology, Kolkata, India, and all experiments with human blood were conducted under an approved institutional Human Ethics committee protocol. Informed consent was provided according to the Declaration of Helsinki. Cancer cell lines and PBMC (5×10^3) in triplicate were incubated in 0.2 mL of standard growth medium containing 10% FBS with varying concentrations of test compounds of the present invention. After 72 hours of incubation, cells were collected by centrifugation (at 1000 g for 5 minutes) and cell-viability was determined by the trypan blue exclusion assay. At least 200 cells were examined in each sample. Because of monolayer culture, treated and untreated PC-3, MCF-7 and MIA PaCa-2 cells were detached from the wells by treatment with Cell Dissociation Solution (Sigma Chemical, St. Louis, Mo.) before counting. Data are represented as IC50 (minimum concentration required to inhibit the viability by 50%) in Table 5.

[2] = test system: chronic myeloid leukemia cell line K562; test: Cell viability, trypan blue exclusion, K562; assay type: cell-based; conditions: Homo sapiens
Description: as §1

[3] = test system: acute myeloid leukemia cell line HL60; test: Cell viability, trypan blue exclusion, HL-60; assay type: cell-based; conditions: Homo sapiens
Description: as §1

[4] = test system: Ehrlich ascites carcinoma (EAC); test: Ehrlich ascites carcinoma (EAC) model in vivo; conditions: 30 mg/kg body weight intraperitoneally thrice a week for three weeks, Swiss albino mice
Description: The in vitro studies indicate that hydroxychavicol and other compounds of the present invention induce killing of a variety of cancer cell lines including breast cancer cell line MCF-7 (Table 5). The MCF-7 cell line is of epithelial origin. Studies were extended in vivo in mouse model for a tumor of epithelial origin. Ehrlich ascites carcinoma is a tumor of epithelial origin (Cancer Research, 1958, 18, 1167-1185). EAC was established in Swiss albino mice as described (Biochemical and Biophysical Research Communications, 2001, 288, 658-665). Swiss albino mice were injected with EAC (2×10^6 cells/mouse) intraperitoneally. 2 days post-injection of tumor cells, these mice (5 per group) were injected intraperitoneally with Compound No. 1 (hydroxychavicol) (30 mg/kg body weight) or Compound No. 7 (30 mg/kg body weight) thrice a week for three weeks. One week after the last injection, mice were sacrificed, and viable cells from peritoneal cavity were counted microscopically. Vehicle (dimethyl sulphoxide [DMSO], 0.1%) was used as control.

[5] = test system: endothelial nitric oxide synthase (eNOS); test: NOS isoform siRNA transfection of MIA PaCa 2 cells, apoptosis and eNOS expression; assay type: cell-based, human; conditions: siRNA 48 hr, then 30 μM for 24 hr
Procedure: MIA PaCa 2 cells were transfected with control siRNA, nNOS siRNA, iNOS siRNA or eNOS siRNA (purchased from Santa Cruz Biotechnology) for 48 hr. Transfections were carried out following the manufacturer's instructions. The transfection reagent used for siRNA transfection was purchased from Santa Cruz. Cells were then treated with vehicle control or Compound 1 (30 μM) for 24 hr. Apoptosis was analyzed by flow cytometry. To confirm that transfectin with siRNAs attenuate the protein expression of respective NOS isoforms, Western blot was performed with whole cell lysates.

[6] = test system: Normal human peripheral blood mononuclear cells (PBMC); test: Cell viability, trypan blue exclusion, normal PBMC; assay type: cell-based; conditions: 72 hours incubation
Description: as §1

[7] = test system: pancreatic cancer cell line MIA PaCa-2; test: Cell viability, trypan blue exclusion, MIA PaCa-2; assay type: cell-based, human; conditions: 72 hours incubation, read-out: Activity (IC50) MIAPaCa-2
Description: as §1

[8] = test system: chronic myeloid leukemia cell line KU812; test: Cell viability, trypan blue exclusion, KU812; assay type: cell-based; conditions: Homo sapiens, 72 hours incubation
Description: as §1

[9] = test system: breast cancer cell line MCF-7; test: Cell viability, trypan blue exclusion, MCF-7; assay type: cell-based, human; conditions: 72 hours incubation
Description: as §1

[10] = Sensitivity to spontaneous autooxidation (H2O2 level, TMB reagent); assay type: physicochemical; conditions: 30 µM, 30 min and 2 hr in medium alone, with and without Catalase; H2O2 in supernatant
Procedure: Spontaneous autooxidation of compounds having phenolic groups produce reactive oxygen species like H2O2. The enzyme Catalase breaks down H2O2 to water, We therefore incubated Compound 1 and 7 (30 µM each) for 30 min and 2 hr in medium alone in the presence and absence of Catalase. Level of H2O2 in the supernatant was then measured as reported using 3,5,3′,5′-tetramethylbenzidine (TMB) reagent (Plant Physiology, 2004, 136, 3114-3123). FIG. 1 represents the data of sensitivity of spontaneous autooxidation of Compound 1 and Compound 7.

[11] = test system: prostate cancer cell line PC-3; test: Cell viability, trypan blue exclusion, PC-3; assay type: cell-based, human; conditions: 72 hours incubation
Description: as §1

[12] = test system: T-lymphoblastic leukemia cell line Molt-4; test: Cell viability, trypan blue exclusion, Molt-4; assay type: cell-based, human; conditions: 72 hours incubation
Description: as §1

In the case of `C=CCc1ccc(O)c(O)c1` [Compound 1, 4-allyl-benzene-1,2-diol], the “Morphology of U937 cells (mode of killing)” value (U937 cells; 30 μM, Giemsa staining, microscopy) is reported as “due to both apoptosis and necrosis”, the “Apoptosis and necrosis of U937 cells by flow cytometry” value (U937 cells; Compound No.1 30 μM, Compound No.7 15 μM, annexin V-FITC/PI) is reported as “induce apoptosis and necrosis” and the IC50 [1] is reported as 25 µM. For the same compound, the IC50 ([2]; K562, 72 hours incubation, trypan blue exclusion, read-out: Activity (IC50) K562) was 20 µM, the IC50 ([2]; read-out: IC50 against chronic myeloid leukemia cancer cell lines (K562), range over both cell lines K562, KU812 and KU812 and over the listed compounds, read-out: IC50 against chronic myeloid leukemia cancer cell lines (K562, KU812)) was 13 to 52 µM and the IC50 ([3]; 72 hours incubation, trypan blue exclusion, read-out: Activity (IC50) HL-60) was 25 µM. The IC50 ([3]; range over both cell lines HL60 and U937 and over the listed compounds, read-out: IC50 against acute myeloid leukemia cancer cell line (HL60, U937)) was 13 to 60 µM, the “In vivo efficacy against EAC tumor (viable cells from peritoneal cavity)” value [4] was “effective in vivo in destroying EAC tumor” and the “NOS isoform involved in induced nitric oxide production and cell death” value [5] was “Endothelial nitric oxide synthase (eNOS) is responsible”. The IC50 [6] was 80 µM, the IC50 [7] was 35 µM and the IC50 ([7]; Homo sapiens, MIA PaCa-2, 72 h) was 30 to 70 µM. For the same compound, the IC50 [8] was 25 µM, the IC50 [9] was 35 µM and the IC50 ([9]; Homo sapiens, MCF7, 72 h) was 25 to 70 µM. For the same compound, the “Sensitivity to spontaneous autooxidation” value [10] was “undergoes spontaneous autooxidation”, the IC50 [11] was 35 µM and the IC50 ([11]; Homo sapiens, 72 h) was 25 to 70 µM. It also gave an IC50 [12] of 30 µM and an IC50 ([12]; Homo sapiens, MOLT-4, 72 h) of 15 to 50 µM.
